Where “and” joins values, the source holds several entries; their conditions need not be identical. Identical values can stand only once.
Biological target: T1, GPR73 (prokineticin 1 receptor) (Homo sapiens, UniProt Q8TCW9)
T1 construct: expressed in transfected cells; host or cells: HEK 293
Assay: PK1 functional assay: Ca2+ mobilization screening for PK1 antagonists on the FLIPR
Format: cell-based
Details: HEK 293 GPR73 cells, multiple values = multiple testing; for inhibition at 10 µM: HEK293, 10 μM compound, read-out: Ca^2+ Mobilization % Inh @ 10 μM; for IC50: PK1 ligand preparation at its EC50, read-out: Ca^2+ Mobilization IC50; for Ca^2+ Mobilization % Inh @ 10 μM: 10 μM compound
Summary of the method: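 HEK293 cells expressing human GPR73 were loaded with Calcium Plus dye, then on FLIPR given compound for 4 min 15 s before PK1 ligand at its predetermined EC50. Baseline-subtracted fluorescence over 1 min 45 s gave percent inhibition versus maximal signal; IC50 fitted.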

T1 sequence (Q8TCW9 whole entry, species assumed): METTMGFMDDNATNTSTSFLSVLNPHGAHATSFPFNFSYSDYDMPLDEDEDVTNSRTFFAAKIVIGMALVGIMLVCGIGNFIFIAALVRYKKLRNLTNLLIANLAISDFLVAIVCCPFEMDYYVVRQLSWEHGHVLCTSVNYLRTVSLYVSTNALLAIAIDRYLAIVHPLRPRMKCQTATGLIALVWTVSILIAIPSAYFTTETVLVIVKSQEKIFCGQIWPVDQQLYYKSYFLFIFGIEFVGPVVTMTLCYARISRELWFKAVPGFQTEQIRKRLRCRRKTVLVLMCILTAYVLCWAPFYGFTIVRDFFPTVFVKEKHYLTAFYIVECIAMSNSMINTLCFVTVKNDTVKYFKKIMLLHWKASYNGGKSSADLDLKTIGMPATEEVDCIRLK

SMILES | inhibition at 10 µM [%] | IC50 | Ca^2+ Mobilization % Inh @ 10 μM
COc1ccc(Cn2c(=O)nc(NCc3cccnc3N)n(Cc3ccc(Cl)c(Cl)c3)c2=O)cc1 [Cpd 151] | 60 | 2400 nM | –
COc1ccc(Cn2c(=O)nc(NCc3cnc(C)cc3C)n(Cc3ccc(N4C(=O)c5ccccc5C4=O)cc3)c2=O)cc1 [Cpd 152] | 91 | 240 nM | –
COc1ccc(Cn2c(=O)nc(NCc3c(C)cc(C)nc3N)n(Cc3cccc4[nH]ccc34)c2=O)cc1 [Cpd 155, 6-[(2-Amino-4,6-dimethyl-pyridin-3-ylmethyl)-amino]-1-(1H-indol-4-ylmethyl)-3-(4-methoxy-benzyl)-1H-[1,3,5]triazine-2,4-dione] | 98 | 2 nM and 7 nM | 100%
Nc1cccc(CNc2nc(=O)n(Cc3ccc(F)cc3)c(=O)n2Cc2ccc(OC(F)F)cc2)n1 [Cpd 156] | 70 | 3220 nM | –
COc1ccc(Cn2c(=O)nc(NCc3c(C)cc(C)nc3N)n(Cc3ccc4c(c3)CCO4)c2=O)cc1 [Cpd 157] | 92 | 4 nM and 11 nM | 96%
Cc1cc(C)c(CNc2nc(=O)n(Cc3ccc(I)cc3)c(=O)n2Cc2ccc(OC(F)F)cc2)cn1 [Cpd 159] | 31 | > 10000 nM | –
Cc1cc(C)c(CNc2nc(=O)n(Cc3ccc(F)cc3)c(=O)n2Cc2ccc(OC(F)F)cc2)cn1 [Cpd 160, 1-(4-Difluoromethoxy-benzyl)-6-[(4,6-dimethyl-pyridin-3-ylmethyl)-amino]-3-(4-fluoro-benzyl)-1H-[1,3,5]triazine-2,4-dione] | 71 | 628 nM | –
Cc1cc(C)c(CNc2nc(=O)n(Cc3ccc(C(F)(F)F)cc3)c(=O)n2Cc2ccc(OC(F)F)cc2)cn1 [Cpd 162] | 31 | > 10000 nM | –
Cc1cc(C)c(CNc2nc(=O)n(Cc3ccc(OC(F)F)cc3)c(=O)n2Cc2ccc(OC(F)F)cc2)cn1 [Cpd 163] | 38 | > 10000 nM | –
Cc1cc(C)c(CNc2nc(=O)n(Cc3ccc(C#N)cc3)c(=O)n2Cc2ccc(OC(F)F)cc2)cn1 [Cpd 164] | 64 | 2010 nM | –
COC(=O)c1ccc(Cn2c(=O)nc(NCc3cnc(C)cc3C)n(Cc3ccc(OC(F)F)cc3)c2=O)cc1 [Cpd 165] | 52 | 6150 nM | –
Cc1cc(C)c(CNc2nc(=O)n(CCOc3ccccc3)c(=O)n2Cc2ccc(OC(F)F)cc2)cn1 [Cpd 166] | 73 | 1700 nM | –
Cc1cc(C)c(CNc2nc(=O)n(CCOc3ccc(F)cc3)c(=O)n2Cc2ccc(OC(F)F)cc2)cn1 [Cpd 167] | 65 | 2620 nM | –
Cc1cc(C)c(CNc2nc(=O)n(Cc3ccc(-c4csnn4)cc3)c(=O)n2Cc2ccc(OC(F)F)cc2)cn1 [Cpd 168] | 68 | 1520 nM | –
COc1ccc(Cn2c(=O)nc(NCc3cnc(C)cc3C)n(Cc3cccc4cc[nH]c34)c2=O)cc1 [Cpd 172] | 88 | 515 nM | –
Cc1cc(C)c(CNc2nc(=O)n(Cc3ccc4occc4c3)c(=O)n2Cc2ccc(OC(F)F)cc2)c(N)n1 [Cpd 175] | 96 | 57 nM and 93 nM | 99%
Cc1cc(C)c(CNc2nc(=O)n(Cc3ccc4c(c3)CCO4)c(=O)n2Cc2ccc(OC(F)F)cc2)c(N)n1 [Cpd 176] | 96 | 23 nM and 48 nM and 130 nM | 98%
CSc1ccc(Cn2c(=O)nc(NCc3cnc(C)cc3C)n(Cc3ccc(OC(F)F)cc3)c2=O)cc1 [Cpd 177] | 79 | 640 nM | –
Cc1cc(C)c(CNc2nc(=O)n(Cc3ccc4c(c3)CCO4)c(=O)n2Cc2ccc(OC(F)F)cc2)cn1 [Cpd 179] | 61 | 4530 nM | –
Cc1cc(C)c(CNc2nc(=O)n(Cc3ccccc3C#N)c(=O)n2Cc2ccc(OC(F)F)cc2)cn1 [Cpd 180] | 37 | > 10000 nM | –
CC(=O)Oc1ccc(Cn2c(=O)nc(NCc3cnc(C)cc3C)n(Cc3ccc(OC(F)F)cc3)c2=O)cc1 [Cpd 182] | 55 | 8510 nM | –
COc1ccc(Cn2c(C=Cc3ccncc3)cc(=O)n(Cc3ccc(OC)cc3)c2=O)cc1 [Cpd 184, 1,3-Bis-(4-methoxy-benzyl)-6-(2-pyridin-4-yl-vinyl)-1H-pyrimidine-2,4-dione] | 65 | 2690 nM | –
Cc1cc(C)c(CNc2nc(=O)n(Cc3ccc4occc4c3)c(=O)n2Cc2ccc3c(c2)CCO3)c(N)n1 [Cpd 186] | 99 | 74 nM and 97 nM | 100%
COc1ccc(Cn2c(CCc3ccccn3)cc(=O)n(Cc3ccc(OC)cc3)c2=O)cc1 [Cpd 187] | 41 | > 10000 nM | –

Further lines, results first:

inhibition at 10 µM [%] | IC50 | Ca^2+ Mobilization % Inh @ 10 μM | SMILES
81 | 703 nM | – | COC(=O)CCCn1c(NCc2cnc(C)cc2C)nc(=O)n(Cc2ccc(OC)cc2)c1=O [Cpd 153]
79 | 657 nM and 952 nM | 80% | COc1ccc(Cn2c(NCCc3ccccn3)nc(=O)n(Cc3ccc(OC)cc3)c2=O)cc1 [Cpd 154]
62 | 3840 nM | – | Cc1cc(C)c(CNc2nc(=O)n(Cc3ccc(-n4cccn4)cc3)c(=O)n2Cc2ccc(OC(F)F)cc2)cn1 [Cpd 158]
53 | 4780 nM | – | Cc1ccc(Cn2c(=O)nc(NCc3cnc(C)cc3C)n(Cc3ccc(OC(F)F)cc3)c2=O)cc1 [Cpd 161]
78 | 226 nM and 973 nM | 86% | COc1ccc(Cn2c(CCc3cccnc3)cc(=O)n(Cc3ccc(OC)cc3)c2=O)cc1 [Cpd 169]
96 | 32 nM | – | COc1ccc(Cn2c(=O)nc(NCc3cccnc3N)n(Cc3ccc4cc[nH]c4c3)c2=O)cc1 [Cpd 170]
46 | > 10000 nM | – | COc1ccc(Cn2c(=O)nc(NCc3cccnc3N)n(Cc3cccc4cc[nH]c34)c2=O)cc1 [Cpd 171]
97 | 207 nM | – | CSc1ccc(Cn2c(=O)nc(NCc3c(C)cc(C)nc3N)n(Cc3ccc(OC(F)F)cc3)c2=O)cc1 [Cpd 173]
87 | 290 nM | – | Cc1cc(C)c(CNc2nc(=O)n(Cc3ccc4sccc4c3)c(=O)n2Cc2ccc(OC(F)F)cc2)c(N)n1 [Cpd 174]
46 | 8650 nM | – | Cc1cc(C)c(CNc2nc(=O)n(Cc3ccc4occc4c3)c(=O)n2Cc2ccc(OC(F)F)cc2)cn1 [Cpd 178]
61 | 3730 nM | – | Cc1cc(C)c(CNc2nc(=O)n(Cc3ccc(O)cc3)c(=O)n2Cc2ccc(OC(F)F)cc2)cn1 [Cpd 181]
68 | 2460 nM | – | COc1ccc(Cn2c(CCc3ccncc3)cc(=O)n(Cc3ccc(OC)cc3)c2=O)cc1 [Cpd 183]
92 | 15 nM and 80 nM and 118 nM | 94% and 98% | Cc1cc(C)c(CNc2nc(=O)n(Cc3ccc4c(c3)CCO4)c(=O)n2Cc2ccc3c(c2)CCO3)c(N)n1 [Cpd 185, 6-[(2-Amino-4,6-dimethyl-pyridin-3-ylmethyl)-amino]-1,3-bis-(2,3-dihydro-benzofuran-5-ylmethyl)-1H-[1,3,5]triazine-2,4-dione]

— patent publication US20080287445A1, “Prokineticin 2 receptor antagonists” (priority 2005, published 2008)
